Bounds are passed on as bounds.

This experiment concerns the target T1, chimeric human H3 receptor (Homo sapiens, UniProt Q9Y5N1).
T1 construct: rat Galpha-i2 (Gnai2, rat); made in house; host or cells: Sf9 insect cells (baculovirus); P2 membranes
Put plainly: Chimeric human H3 receptor screening GTP binding assay (inhibition of histamine-stimulated GTP-gamma35S binding, Example 8). The class given is biochemical. The conditions noted are these: 1 h; assay described in Example 8; symbol "!" in column headed Ki; read-out: Ki ("!": percent inhibition of agonist-induced GTP-gammaS binding to H3). Put shortly:
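Sf9 membranes co-expressing chimeric human H3 receptor and heterotrimeric G-protein (35 μg protein) incubated 60 min at room temperature with 4 μM compound, 1 μM histamine and 125 pM GTP-gamma35S in pH 7.4 buffer with 10 μM GDP. Filter-bound radioactivity, nonspecific (10 μM GTP-gammaS) subtracted, reported as % inhibition of histamine signal.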
(In general: Binding of GTPγS marks nucleotide exchange on a G protein.)

T1 sequence (Q9Y5N1 with tags, fused parts or gaps): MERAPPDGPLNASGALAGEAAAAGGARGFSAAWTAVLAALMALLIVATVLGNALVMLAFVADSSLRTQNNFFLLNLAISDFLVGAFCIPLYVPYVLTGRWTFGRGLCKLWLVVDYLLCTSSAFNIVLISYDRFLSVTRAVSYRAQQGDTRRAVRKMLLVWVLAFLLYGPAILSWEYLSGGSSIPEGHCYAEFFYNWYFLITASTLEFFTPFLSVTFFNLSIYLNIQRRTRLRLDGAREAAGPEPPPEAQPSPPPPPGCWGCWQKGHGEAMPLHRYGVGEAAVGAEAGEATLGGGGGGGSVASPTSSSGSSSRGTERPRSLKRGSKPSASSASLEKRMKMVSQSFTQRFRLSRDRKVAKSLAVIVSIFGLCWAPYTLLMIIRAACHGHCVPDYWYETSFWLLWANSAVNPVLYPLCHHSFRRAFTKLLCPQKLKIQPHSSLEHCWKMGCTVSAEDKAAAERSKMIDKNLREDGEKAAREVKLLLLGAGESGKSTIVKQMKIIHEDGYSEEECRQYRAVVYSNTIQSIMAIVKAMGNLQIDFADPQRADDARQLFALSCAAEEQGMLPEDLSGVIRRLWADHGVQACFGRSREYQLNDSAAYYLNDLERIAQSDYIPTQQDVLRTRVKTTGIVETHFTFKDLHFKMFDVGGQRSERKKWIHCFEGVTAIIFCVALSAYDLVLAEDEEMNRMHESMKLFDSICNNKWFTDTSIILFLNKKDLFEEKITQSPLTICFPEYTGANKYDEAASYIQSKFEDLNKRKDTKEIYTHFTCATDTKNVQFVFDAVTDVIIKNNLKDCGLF

The inhibition is the percentage by which the read-out fell short of the control. For the molecule `O=C(c1c(-c2ccccc2)nnc2ccccc12)N1CCc2cnc(N3CCN(C4CCC4)CC3)nc2CC1` [Compound 510, 2-(4-cyclobutylpiperazin-1-yl)-7-[(3-phenylcinnolin-4-yl)carbonyl]-6,7,8,9-tetrahydro-5H-pyrimido[4,5-d]azepine], the inhibition at 4 µM is at least 90%.
For the molecule `O=C(c1cnn(-c2ccccc2)c1C(F)(F)F)N1CCc2cnc(N3CCN(C4CCC4)CC3)nc2CC1` [Compound 511, 2-(4-cyclobutylpiperazin-1-yl)-7-{[1-phenyl-5-(trifluormethyl)-1H-pyrazol-4-yl]carbonyl}-6,7,8,9-tetrahydro-5H-pyrimido[4,5-d]azepine], the inhibition at 4 µM is at least 90%.
To `CCCc1c(C(=O)N2CCc3cnc(N4CCN(C5CCC5)CC4)nc3CC2)cnn1-c1ccc(Cl)cc1` [Compound 512, 7-{[1-(4-chlorophenyl)-5-propyl-1H-pyrazol-4-yl]carbonyl}-2-(4-cyclobutylpiperazin-1-yl)-6,7,8,9-tetrahydro-5H-pyrimido[4,5-d]azepine] belongs at least 90%; to `O=C(Cc1cccc(F)c1)N1CCc2cnc(N3CCN(C4CCC4)CC3)nc2CC1` [Compound 513, 2-(4-cyclobutylpiperazin-1-yl)-7-[(3-fluorophenyl)acetyl]-6,7,8,9-tetrahydro-5H-pyrimido[4,5-d]azepine], at least 90%; to `Cc1cccc(CC(=O)N2CCc3cnc(N4CCN(C5CCC5)CC4)nc3CC2)c1` [Compound 514, 2-(4-cyclobutylpiperazin-1-yl)-7-[(3-methylphenyl)acetyl]-6,7,8,9-tetrahydro-5H-pyrimido[4,5-d]azepine], at least 90%.
To `Cc1ccc(CC(=O)N2CCc3cnc(N4CCN(C5CCC5)CC4)nc3CC2)cc1` [Compound 515, 2-(4-cyclobutylpiperazin-1-yl)-7-[(4-methylphenyl)acetyl]-6,7,8,9-tetrahydro-5H-pyrimido[4,5-d]azepine] belongs at least 90%.
To `O=C(Cc1ccc(F)cc1)N1CCc2cnc(N3CCN(C4CCC4)CC3)nc2CC1` [Compound 516, 2-(4-cyclobutylpiperazin-1-yl)-7-[(4-fluorophenyl)acetyl]-6,7,8,9-tetrahydro-5H-pyrimido[4,5-d]azepine] belongs at least 90%; to `O=C(Cc1ccccc1F)N1CCc2cnc(N3CCN(C4CCC4)CC3)nc2CC1` [Compound 517, 2-(4-cyclobutylpiperazin-1-yl)-7-[(2-fluorophenyl)acetyl]-6,7,8,9-tetrahydro-5H-pyrimido[4,5-d]azepine], at least 90%.
In the case of `O=C(Cc1ccc(-c2ccccc2)cc1)N1CCc2cnc(N3CCN(C4CCC4)CC3)nc2CC1` [Compound 518, 7-(biphenyl-4-ylacetyl)-2-(4-cyclobutylpiperazin-1-yl)-6,7,8,9-tetrahydro-5H-pyrimido[4,5-d]azepine], the inhibition at 4 µM was at least 90%.
To `CSc1ccc(CC(=O)N2CCc3cnc(N4CCN(C5CCC5)CC4)nc3CC2)cc1` [Compound 519, 2-(4-cyclobutylpiperazin-1-yl)-7-{[4-(methylthio)phenyl]acetyl}-6,7,8,9-tetrahydro-5H-pyrimido[4,5-d]azepine] belongs at least 90%.
To `O=C(Cc1ccc(OCc2ccccc2)cc1)N1CCc2cnc(N3CCN(C4CCC4)CC3)nc2CC1` [Compound 520, 7-{[4-(benzyloxy)phenyl]acetyl}-2-(4-cyclobutylpiperazin-1-yl)-6,7,8,9-tetrahydro-5H-pyrimido[4,5-d]azepine] belongs at least 90%; to `CC(C)c1ccc(CC(=O)N2CCc3cnc(N4CCN(C5CCC5)CC4)nc3CC2)cc1` [Compound 521, 2-(4-cyclobutylpiperazin-1-yl)-7-[(4-isopropylphenyl)acetyl]-6,7,8,9-tetrahydro-5H-pyrimido[4,5-d]azepine], at least 90%.
To `O=C(Cc1ccc2ccccc2c1)N1CCc2cnc(N3CCN(C4CCC4)CC3)nc2CC1` [Compound 522, 2-(4-cyclobutylpiperazin-1-yl)-7-(2-naphthylacetyl)-6,7,8,9-tetrahydro-5H-pyrimido[4,5-d]azepine] belongs at least 90%; to `Cc1onc(-c2c(Cl)cccc2Cl)c1C(=O)N1CCc2cnc(N3CCN(C4CCC4)CC3)nc2CC1` [Compound 523, 2-(4-cyclobutylpiperazin-1-yl)-7-{[3-(2,6-dichlorophenyl)-5-methylisoxazol-4-yl]carbonyl}-6,7,8,9-tetrahydro-5H-pyrimido[4,5-d]azepine], at least 90%; to `Cc1nc(-c2ccc(C(F)(F)F)cc2)sc1C(=O)N1CCc2cnc(N3CCN(C4CCC4)CC3)nc2CC1` [Compound 524, 2-(4-cyclobutylpiperazin-1-yl)-7-({4-methyl-2-[4-(trifluoromethyl)phenyl]-1,3-thiazol-5-yl}carbonyl)-6,7,8,9-tetrahydro-5H-pyrimido[4,5-d]azepine], at least 90%.
On to `Cc1nc(C)c(C(=O)N2CCc3cnc(N4CCN(C5CCC5)CC4)nc3CC2)s1` [Compound 525, 2-(4-cyclobutylpiperazin-1-yl)-7-[(2,4-dimethyl-1,3-thiazol-5-yl)carbonyl]-6,7,8,9-tetrahydro-5H-pyrimido[4,5-d]azepine], for which the inhibition at 4 µM is at least 90%.
To `O=C(c1nsc(Cl)c1Cl)N1CCc2cnc(N3CCN(C4CCC4)CC3)nc2CC1` [Compound 526, 2-(4-cyclobutylpiperazin-1-yl)-7-[(4,5-dichloroisothiazol-3-yl)carbonyl]-6,7,8,9-tetrahydro-5H-pyrimido[4,5-d]azepine] belongs at least 90%; to `O=C(c1csnn1)N1CCc2cnc(N3CCN(C4CCC4)CC3)nc2CC1` [Compound 527, 2-(4-cyclobutylpiperazin-1-yl)-7-(1,2,3-thiadiazol-4-ylcarbonyl)-6,7,8,9-tetrahydro-5H-pyrimido[4,5-d]azepine], at least 90%.
To `Cc1nnsc1C(=O)N1CCc2cnc(N3CCN(C4CCC4)CC3)nc2CC1` [Compound 528, 2-(4-cyclobutylpiperazin-1-yl)-7-[(4-methyl-1,2,3-thiadiazol-5-yl)carbonyl]-6,7,8,9-tetrahydro-5H-pyrimido[4,5-d]azepine] belongs at least 90%; to `O=C(c1csc(-c2cccnc2)n1)N1CCc2cnc(N3CCN(C4CCC4)CC3)nc2CC1` [Compound 529, 2-(4-cyclobutylpiperazin-1-yl)-7-[(2-pyridin-3-yl-1,3-thiazol-4-yl)carbonyl]-6,7,8,9-tetrahydro-5H-pyrimido[4,5-d]azepine], at least 90%; to `O=C(c1csc(-c2ccncc2)n1)N1CCc2cnc(N3CCN(C4CCC4)CC3)nc2CC1` [Compound 530, 2-(4-cyclobutylpiperazin-1-yl)-7-[(2-pyridin-4-yl-1,3-thiazol-4-yl)carbonyl]-6,7,8,9-tetrahydro-5H-pyrimido[4,5-d]azepine], at least 90%.
To `Nc1ccccc1C(=O)N1CCc2cnc(N3CCN(C4CCC4)CC3)nc2CC1` [Compound 531, 2-{[2-(4-cyclobutylpiperazin-1-yl)-5,6,8,9-tetrahydro-7H-pyrimido[4,5-d]azepin-7-yl]carbonyl}aniline] belongs at least 90%.
Regarding `Cc1ccc(C(=O)N2CCc3cnc(N4CCN(C5CCC5)CC4)nc3CC2)cc1N` [Compound 532, 5-{[2-(4-cyclobutylpiperazin-1-yl)-5,6,8,9-tetrahydro-7H-pyrimido[4,5-d]azepin-7-yl]carbonyl}-2-methylaniline], the inhibition at 4 µM is at least 90%.
To `Nc1ccc(C(=O)N2CCc3cnc(N4CCN(C5CCC5)CC4)nc3CC2)cc1` [Compound 533, 4-{[2-(4-cyclobutylpiperazin-1-yl)-5,6,8,9-tetrahydro-7H-pyrimido[4,5-d]azepin-7-yl]carbonyl}aniline] belongs at least 90%.
To `CNc1ccccc1C(=O)N1CCc2cnc(N3CCN(C4CCC4)CC3)nc2CC1` [Compound 534, 2-{[2-(4-cyclobutylpiperazin-1-yl)-5,6,8,9-tetrahydro-7H-pyrimido[4,5-d]azepin-7-yl]carbonyl}-N-methylaniline] belongs at least 90%; to `CNc1ccc(C(=O)N2CCc3cnc(N4CCN(C5CCC5)CC4)nc3CC2)cc1` [Compound 535, 4-{[2-(4-cyclobutylpiperazin-1-yl)-5,6,8,9-tetrahydro-7H-pyrimido[4,5-d]azepin-7-yl]carbonyl}-N-methylaniline], at least 90%; to `Nc1ccc(Cl)cc1C(=O)N1CCc2cnc(N3CCN(C4CCC4)CC3)nc2CC1` [Compound 536, 4-chloro-2-{[2-(4-cyclobutylpiperazin-1-yl)-5,6,8,9-tetrahydro-7H-pyrimido[4,5-d]azepin-7-yl]carbonyl}aniline], at least 90%.
To `Cc1cccc(C(=O)N2CCc3cnc(N4CCN(C5CCC5)CC4)nc3CC2)c1N` [Compound 537, 2-{[2-(4-cyclobutylpiperazin-1-yl)-5,6,8,9-tetrahydro-7H-pyrimido[4,5-d]azepin-7-yl]carbonyl}-6-methylaniline] belongs at least 90%; to `Cc1c(N)cccc1C(=O)N1CCc2cnc(N3CCN(C4CCC4)CC3)nc2CC1` [Compound 538, 3-{[2-(4-cyclobutylpiperazin-1-yl)-5,6,8,9-tetrahydro-7H-pyrimido[4,5-d]azepin-7-yl]carbonyl}-2-methylaniline], at least 90%.
Take `Cc1ccc(N)c(C(=O)N2CCc3cnc(N4CCN(C5CCC5)CC4)nc3CC2)c1` [Compound 539, 2-{[2-(4-cyclobutylpiperazin-1-yl)-5,6,8,9-tetrahydro-7H-pyrimido[4,5-d]azepin-7-yl]carbonyl}-4-methylaniline]: the inhibition at 4 µM is at least 90%.
To `Nc1cc(Cl)ccc1C(=O)N1CCc2cnc(N3CCN(C4CCC4)CC3)nc2CC1` [Compound 540, 5-chloro-2-{[2-(4-cyclobutylpiperazin-1-yl)-5,6,8,9-tetrahydro-7H-pyrimido[4,5-d]azepin-7-yl]carbonyl}aniline] belongs at least 90%.

The record behind these values is patent US20080051387A1, “TETRAHYDROPYRIDO[3,4-D]PYRIMIDINES AND RELATED ANALOGUES” (priority 2006, published 2008).
